Measurements taken from the supplement of paper PMC10627819.

Columns and labels:
B. subtilis 168 [1] = assay: fitness (endpoint OD595 vs no drug) (fraction); higher = more growth
Summary of the method: (§1)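 Each well of a 384-well plate received 30 µl of culture at OD595 0.01, or 55 µl for S. pneumoniae. TSB, LB Lennox or CY served as media at 37 °C. OD595 was taken every 30 min for 14 h and corrected by subtracting the first reading. Fitness is the optical density at stationary-phase entry divided by the robust mean of no-drug controls, capped at 1.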

S. aureus Newman [2] = assay: as above
Summary of the method: as §1

S. pneumoniae D39V [3] = assay: as above
Summary of the method: as §1

B. subtilis 168 [4] = assay: Bliss interaction score (quartile over a dose matrix) (fitness difference); higher = more antagonism (negative = synergy)
Summary of the method: (§2)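 The Bliss score is observed fitness minus expected fitness, where the expected value is the product of single-drug fitness values inferred from combination data. Fitness is OD595 at entry into stationary phase normalised to the plate's robust no-drug mean and capped at 1. Scores are reported as quartiles spanning technical, biological and donor/recipient replicates.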

S. aureus DSM 20231 = assay: as above
Summary of the method: as §2

S. aureus Newman [5] = assay: as above
Summary of the method: as §2

S. pneumoniae D39V [6] = assay: as above
Summary of the method: as §2
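Wherever Bliss interaction score (quartile over a dose matrix) is given: first quartile when negative (synergy) and third quartile when positive (antagonism).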

CC1=C(C(=O)O)N2C(=O)[C@@H](NC(=O)[C@H](N)c3ccccc3)[C@H]2SC1 [Cephalexin] + COc1ccc(C[C@H](N)C(=O)N[C@H]2[C@@H](O)[C@H](n3cnc4c(N(C)C)ncnc43)O[C@@H]2CO)cc1 [Puromycin]
fitness
Conditions	first compound 0.125 µg/mL	first compound 0.25 µg/mL	first compound 0.5 µg/mL	first compound 1 µg/mL
B. subtilis 168 [1], partner 0.39 µg/mL	0.944	0.912	0.869	–
B. subtilis 168 [1], partner 0.78 µg/mL	0.952	0.891	0.935	–
B. subtilis 168 [1], partner 1.56 µg/mL	0.921	0.888	0.938	–
S. aureus Newman [2], partner 0.39 µg/mL	–	0.991	≥ 1	0.99
S. aureus Newman [2], partner 0.78 µg/mL	–	≥ 1	≥ 1	≥ 1
S. aureus Newman [2], partner 1.56 µg/mL	–	≥ 1	0.976	0.991

fitness, S. pneumoniae D39V [3], one replicate
Conditions	first compound 0.125 µg/mL	first compound 0.25 µg/mL	first compound 0.5 µg/mL	first compound 1 µg/mL	first compound 2 µg/mL	first compound 4 µg/mL
partner 1 µg/mL	≥ 1	≥ 1	≥ 1	0.158	0.0772	0.0589
partner 2 µg/mL	0.939	0.926	≥ 1	0.3	0.0861	0.055
partner 4 µg/mL	0.798	0.883	0.893	0.0824	0.0686	0.047

Conditions	Bliss interaction score
B. subtilis 168 [4]	0.0628
S. aureus DSM 20231	0.0696
S. aureus Newman [5]	0.043
S. pneumoniae D39V [6]	-0.101

CC1=C(C(=O)O)N2C(=O)[C@@H](NC(=O)[C@H](N)c3ccccc3)[C@H]2SC1 [Cephalexin] + C[n+]1ccc(-c2cc[n+](C)cc2)cc1 [Paraquat]
fitness
Conditions	first compound 0.125 µg/mL	first compound 0.25 µg/mL	first compound 0.5 µg/mL	first compound 1 µg/mL
B. subtilis 168 [1], partner 1.25 µg/mL	0.908	0.892	0.924	–
B. subtilis 168 [1], partner 2.5 µg/mL	0.937	0.912	0.902	–
B. subtilis 168 [1], partner 5 µg/mL	0.815	0.795	0.851	–
S. aureus Newman [2], partner 1.25 µg/mL	–	0.986	0.874	0.874
S. aureus Newman [2], partner 2.5 µg/mL	–	0.996	≥ 1	0.918
S. aureus Newman [2], partner 5 µg/mL	–	0.982	0.963	≥ 1

fitness, S. pneumoniae D39V [3], one replicate
Conditions	first compound 0.125 µg/mL	first compound 0.25 µg/mL	first compound 0.5 µg/mL	first compound 1 µg/mL	first compound 2 µg/mL	first compound 4 µg/mL
partner 1.5 µg/mL	0.999	0.982	0.998	0.828	0.21	0.0243
partner 3 µg/mL	0.909	0.913	0.928	0.865	0.286	0.0238
partner 6 µg/mL	0.896	0.897	0.9	0.861	0.328	0.0875

Conditions	Bliss interaction score
B. subtilis 168 [4]	0.0473
S. aureus DSM 20231	0.0584
S. aureus Newman [5]	0.0521
S. pneumoniae D39V [6]	0.135

CC1=C(C(=O)O)N2C(=O)[C@@H](NC(=O)[C@H](N)c3ccccc3)[C@H]2SC1 [Cephalexin] + Cc1cc(NS(=O)(=O)c2ccc(N)cc2)no1 [Sulfamethoxazol]
fitness
Conditions	first compound 0.125 µg/mL	first compound 0.25 µg/mL	first compound 0.5 µg/mL	first compound 1 µg/mL
B. subtilis 168 [1], partner 1 µg/mL	0.951	0.924	0.895	–
B. subtilis 168 [1], partner 2 µg/mL	0.904	0.937	0.902	–
B. subtilis 168 [1], partner 4 µg/mL	0.955	0.929	0.945	–
S. aureus Newman [2], partner 1 µg/mL	–	≥ 1	0.988	1
S. aureus Newman [2], partner 2 µg/mL	–	≥ 1	0.979	0.983
S. aureus Newman [2], partner 4 µg/mL	–	0.999	≥ 1	≥ 1

fitness, one replicate
Conditions	first compound 0.125 µg/mL	first compound 0.25 µg/mL	first compound 0.5 µg/mL	first compound 1 µg/mL	first compound 2 µg/mL	first compound 4 µg/mL
B. subtilis 168 [1], partner 0.5 µg/mL	–	0.987	≥ 1	≥ 1	–	–
B. subtilis 168 [1], partner 1 µg/mL	–	–	–	0.861	–	–
B. subtilis 168 [1], partner 2 µg/mL	–	–	–	0.809	–	–
S. aureus Newman [2], partner 2 µg/mL	–	–	–	–	≥ 1	–
S. aureus Newman [2], partner 4 µg/mL	–	–	–	–	≥ 1	–
S. aureus Newman [2], partner 8 µg/mL	–	–	0.944	≥ 1	≥ 1	–
S. pneumoniae D39V [3], partner 1 µg/mL	0.92	0.925	0.933	0.678	0.0509	0
S. pneumoniae D39V [3], partner 2 µg/mL	0.961	0.937	0.979	0.717	0.165	0.0786
S. pneumoniae D39V [3], partner 4 µg/mL	0.963	0.972	0.954	0.685	0.209	0.013

Conditions	Bliss interaction score
B. subtilis 168 [4]	0.0517
S. aureus DSM 20231	0.059
S. aureus Newman [5]	-0.021
S. pneumoniae D39V [6]	0.0504

CC1=C(C(=O)O)N2C(=O)[C@@H](NC(=O)[C@H](N)c3ccccc3)[C@H]2SC1 [Cephalexin] + Cc1ncc([N+](=O)[O-])n1CCO [Metronidazole]
fitness
Conditions	partner 0.625 µg/mL	partner 1.073 µg/mL	partner 1.25 µg/mL	partner 2.145 µg/mL	partner 2.5 µg/mL	partner 4.29 µg/mL
B. subtilis 168 [1], first compound 0.125 µg/mL	0.958	–	0.936	–	0.963	–
B. subtilis 168 [1], first compound 0.25 µg/mL	0.94	–	0.91	–	0.86	–
B. subtilis 168 [1], first compound 0.5 µg/mL	0.943	–	0.932	–	0.926	–
S. aureus Newman [2], first compound 0.25 µg/mL	0.962	–	≥ 1	–	≥ 1	–
S. aureus Newman [2], first compound 0.5 µg/mL	0.994	–	0.984	–	≥ 1	–
S. aureus Newman [2], first compound 1 µg/mL	≥ 1	–	≥ 1	–	≥ 1	–
S. pneumoniae D39V [3], first compound 4 µg/mL	–	0.0041	–	0.0332	–	0.0078

fitness, one replicate
Conditions	first compound 0.125 µg/mL	first compound 0.25 µg/mL	first compound 0.5 µg/mL	first compound 1 µg/mL
S. aureus Newman [2], partner 0.781 µg/mL	–	0.989	≥ 1	≥ 1
S. aureus Newman [2], partner 1.562 µg/mL	–	≥ 1	≥ 1	≥ 1
S. aureus Newman [2], partner 3.124 µg/mL	–	0.998	≥ 1	≥ 1
S. pneumoniae D39V [3], partner 1.25 µg/mL	≥ 1	0.989	≥ 1	–
S. pneumoniae D39V [3], partner 2.5 µg/mL	≥ 1	≥ 1	≥ 1	–
S. pneumoniae D39V [3], partner 5 µg/mL	0.971	≥ 1	≥ 1	–

Conditions	Bliss interaction score
B. subtilis 168 [4]	-0.0395
S. aureus DSM 20231	0.0322
S. aureus Newman [5]	0.0215
S. pneumoniae D39V [6]	0.132
